Assay results from patent publication US20030135173A1 (priority 2001, published 2003).
Where two headings read alike, the source gives them in different places.

Key:
S. aureus (MN8) = assay: microbe, parasite or virus in culture; assay type: cell-based; conditions: Staphylococcus aureus; for inhibition at 0.2 %: 0.2% test compound; for inhibition at 0.5 %: 0.5% test compound
S. aureus strain RN 6390 = assay type: cell-based, Staphylococcus aureus
S. aureus FRI-1187 [1] = assay type: cell-based, Staphylococcus aureus
S. aureus FRI-1169 = assay type: cell-based, Staphylococcus aureus
S. aureus FRI-1187 [2] = assay type: cell-based, Staphylococcus aureus; remark: listed apart in the source
[3] = read-out: Reduction of Toxin %, Table 2
[4] = read-out: Reduction of Toxin %, Table 3
[5] = read-out: Reduction of Toxin %, Table 4

`O=C(O)c1ccccc1O` [2-hydroxybenzoic acid] showed an inhibition at 0.2 % (S. aureus (MN8); [3]) of 93%.
`O=C(O)/C=C/c1ccccc1` [Trans-cinnamic acid] was tested, and the inhibition at 0.5 % (S. aureus (MN8); [4]) was 82%.
In the case of `CC(=O)Nc1ccc(O)cc1` [4-Acetamidophenol], the inhibition at 0.5 % (S. aureus (MN8); [5]) is reported as 79%.
With `COC(=O)c1ccc(O)cc1` [p-hydroxybenzoic acid, methyl ester] the inhibition at 0.2 % (S. aureus (MN8); [3]) was 82% and the “production of the alpha toxin” value (S. aureus strain RN 6390) was “significantly reduced”.
Compound `Nc1ccc(C(=O)O)cc1` [p-aminobenzoic acid] has an inhibition at 0.2 % (S. aureus (MN8); [3]) of 89%.
`OCCc1ccccc1` [Phenylethyl alcohol] was tested, and the “amount of exotoxin production” value (S. aureus FRI-1187 [1]) was “significantly reduced”, the “effect on the growth of S. aureus cells” value (S. aureus FRI-1169) was “minimal, if any, effect” and the inhibition at 0.5 % (S. aureus (MN8); [3]) was 97%. For the same compound, the inhibition at 0.5 % (S. aureus (MN8); [4]) was 98%, the inhibition at 0.5 % (S. aureus (MN8); [5]) was 98% and the “effect on the growth of S. aureus cells” value (S. aureus FRI-1187 [2]) was “minimal, if any, effect”. The “production of the alpha toxin” value (S. aureus strain RN 6390) was “significantly reduced”.
Compound `O=C(O)c1cc(O)c(O)c(O)c1` [Gallic acid] has an inhibition at 0.5 % (S. aureus (MN8); [4]) of 95%.
Work on `CC(=O)N[C@@H](Cc1ccc(O)cc1)C(=O)O` [Acetyl tyrosine] yielded an inhibition at 0.5 % (S. aureus (MN8); [4]) of 69%.
